Each compound was assayed against PARP7 (Homo sapiens (Human), UniProt Q7Z3E1) (assay: Enzymatic assay for inhibition of PARP7: TR-FRET displacement of biotinylated Probe A from the TIPARP active site). Conditions: Table A-1.
Assay type: binding
Summary of the method: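 Displacement of biotinylated Probe A from TIPARP was measured as the 665/615 nm time-resolved FRET ratio (excitation 320 nm, 90 μs delay) after a further 30 min at 25 °C. Inhibition across compound concentrations was fitted by dose-response regression, with the Hill slope free or fixed at 1 (3-parameter fit).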

Sequence of PARP7 (Q7Z3E1 whole entry): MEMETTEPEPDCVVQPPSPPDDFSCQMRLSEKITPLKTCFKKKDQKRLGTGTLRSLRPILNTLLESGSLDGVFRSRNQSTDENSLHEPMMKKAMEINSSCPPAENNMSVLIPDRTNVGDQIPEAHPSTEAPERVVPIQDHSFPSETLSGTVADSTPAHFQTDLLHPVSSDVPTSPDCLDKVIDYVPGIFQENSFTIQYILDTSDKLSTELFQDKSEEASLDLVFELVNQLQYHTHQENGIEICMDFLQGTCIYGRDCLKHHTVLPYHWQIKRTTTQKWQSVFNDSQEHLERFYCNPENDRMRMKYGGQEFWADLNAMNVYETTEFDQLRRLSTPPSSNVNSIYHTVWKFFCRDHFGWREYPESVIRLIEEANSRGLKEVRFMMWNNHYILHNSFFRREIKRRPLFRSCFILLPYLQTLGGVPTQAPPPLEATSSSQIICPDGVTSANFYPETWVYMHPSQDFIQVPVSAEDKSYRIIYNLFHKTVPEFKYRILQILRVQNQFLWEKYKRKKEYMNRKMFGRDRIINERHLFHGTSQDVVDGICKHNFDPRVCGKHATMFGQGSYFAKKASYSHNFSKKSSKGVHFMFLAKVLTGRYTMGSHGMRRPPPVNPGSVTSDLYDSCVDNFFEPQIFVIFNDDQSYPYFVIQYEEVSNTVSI

Row | SMILES | IC50 [nM]
1 | O=C(CCOC[C@H]1c2ccccc2CN1c1cn[nH]c(=O)c1C(F)(F)F)N1CCNCC1 [Example 418, (R)-5-(1-((3-Oxo-3-(piperazin-1-yl)propoxy)methyl)isoindolin-2-yl)-4-(trifluoromethyl)pyridazin-3(2H)-one 0.4 formic acid] | ≥ 1000
2 | CC(=O)N1CCN(C(=O)CCOC[C@@H]2c3ccccc3CN2c2cn[nH]c(=O)c2C(F)(F)F)CC1 [Example 419, (S)-5-(1-((3-(4-Acetylpiperazin-1-yl)-3-oxopropoxy)methyl)isoindolin-2-yl)-4-(trifluoromethyl)pyridazin-3(2H)-one] | < 100
3 | CC(=O)N1CCN(C(=O)CCOC[C@H]2c3ccccc3CN2c2cn[nH]c(=O)c2C(F)(F)F)CC1 [Example 420, (R)-5-(1-((3-(4-Acetylpiperazin-1-yl)-3-oxopropoxy)methyl)isoindolin-2-yl)-4-(trifluoromethyl)pyridazin-3(2H)-one] | ≥ 1000
4 | CN1CCN(C(=O)CCOC[C@@H]2c3ccccc3CN2c2cn[nH]c(=O)c2C(F)(F)F)CC1 [Example 421, (S)-5-(1-((3-(4-Methylpiperazin-1-yl)-3-oxopropoxy)methyl)isoindolin-2-yl)-4-(trifluoromethyl)pyridazin-3(2H)-one] | 100 to 1000
5 | CN1CCN(C(=O)CCOC[C@H]2c3ccccc3CN2c2cn[nH]c(=O)c2C(F)(F)F)CC1 [Example 422, (R)-5-(1-((3-(4-Methylpiperazin-1-yl)-3-oxopropoxy)methyl)isoindolin-2-yl)-4-(trifluoromethyl)pyridazin-3(2H)-one] | ≥ 1000
6 | N#CCCC(=O)N1CCN(C(=O)CCOC[C@@H]2c3ccccc3CN2c2cn[nH]c(=O)c2C(F)(F)F)CC1 [Example 423, (S)-4-Oxo-4-(4-(3-((2-(6-oxo-5-(trifluoromethyl)-1,6-dihydropyridazin-4-yl)isoindolin-1-yl)methoxy)propanoyl)piperazin-1-yl)butanenitrile] | < 100
7 | N#CCCC(=O)N1CCN(C(=O)CCOC[C@H]2c3ccccc3CN2c2cn[nH]c(=O)c2C(F)(F)F)CC1 [Example 424, (R)-4-Oxo-4-(4-(3-((2-(6-oxo-5-(trifluoromethyl)-1,6-dihydropyridazin-4-yl)isoindolin-1-yl)methoxy)propanoyl)piperazin-1-yl)butanenitrile] | ≥ 1000
8 | N#Cc1ccc(N2CCN(C(=O)CCNC[C@H]3c4ccccc4CN3c3cn[nH]c(=O)c3Cl)CC2)nc1 [Example 425, (R)-6-(4-(3-(((2-(5-Chloro-6-oxo-1,6-dihydropyridazin-4-yl)isoindolin-1-yl)methyl)amino)propanoyl)piperazin-1-yl)nicotinonitrile] | ≥ 1000
9 | N#Cc1ccc(N2CCN(C(=O)CCNC[C@@H]3c4ccccc4CN3c3cn[nH]c(=O)c3Cl)CC2)nc1 [Example 426, (S)-6-(4-(3-(((2-(5-Chloro-6-oxo-1,6-dihydropyridazin-4-yl)isoindolin-1-yl)methyl)amino)propanoyl)piperazin-1-yl)nicotinonitrile] | < 100
10 | CN(CCC(=O)N1CCN(c2ccc(C#N)cn2)CC1)C[C@@H]1c2ccccc2CN1c1cn[nH]c(=O)c1C(F)(F)F [Example 427, (S)-6-(4-(3-(Methyl((2-(6-oxo-5-(trifluoromethyl)-1,6-dihydropyridazin-4-yl)isoindolin-1-yl)methyl)amino)propanoyl)piperazin-1-yl)nicotinonitrile] | < 100
11 | CN(CCC(=O)N1CCN(c2ccc(C#N)cn2)CC1)C[C@H]1c2ccccc2CN1c1cn[nH]c(=O)c1C(F)(F)F [Example 428, (R)-6-(4-(3-(Methyl((2-(6-oxo-5-(trifluoromethyl)-1,6-dihydropyridazin-4-yl)isoindolin-1-yl)methyl)amino)propanoyl)piperazin-1-yl)nicotinonitrile] | 100 to 1000
12 | CN(CCC(=O)N1CCN(c2ccc(C#N)cn2)CC1)C[C@@H]1c2ccccc2CN1c1cn[nH]c(=O)c1Cl [Example 429, (S)-6-(4-(3-(((2-(5-Chloro-6-oxo-1,6-dihydropyridazin-4-yl)isoindolin-1-yl)methyl)(methyl)amino)propanoyl)piperazin-1-yl)nicotinonitrile] | < 100
13 | CN(CCC(=O)N1CCN(c2ccc(C#N)cn2)CC1)C[C@H]1c2ccccc2CN1c1cn[nH]c(=O)c1Cl [Example 430, (R)-6-(4-(3-(((2-(5-Chloro-6-oxo-1,6-dihydropyridazin-4-yl)isoindolin-1-yl)methyl)(methyl)amino)propanoyl)piperazin-1-yl)nicotinonitrile] | 100 to 1000
14 | N#Cc1ccc(N2CCN(C(=O)CCOC[C@@H]3c4ncccc4CN3c3cn[nH]c(=O)c3Cl)CC2)nc1 [Example 431, (S)-6-(4-(3-((6-(5-Chloro-6-oxo-1,6-dihydropyridazin-4-yl)-6,7-dihydro-5H-pyrrolo[3,4-b]pyridin-7-yl)methoxy)propanoyl)piperazin-1-yl)nicotinonitrile] | < 100
15 | N#Cc1ccc(N2CCN(C(=O)CCOC[C@H]3c4ncccc4CN3c3cn[nH]c(=O)c3Cl)CC2)nc1 [Example 432, (R)-6-(4-(3-((6-(5-Chloro-6-oxo-1,6-dihydropyridazin-4-yl)-6,7-dihydro-5H-pyrrolo[3,4-b]pyridin-7-yl)methoxy)propanoyl)piperazin-1-yl)nicotinonitrile] | 100 to 1000
16 | O=C(CCNC[C@@H]1c2ccccc2CN1c1cn[nH]c(=O)c1C(F)(F)F)N1CCN(c2ncc(C(F)(F)F)cn2)CC1 [Example 433, (S)-5-(1-(((3-Oxo-3-(4-(5-(trifluoromethyl)pyrimidin-2-yl)piperazin-1-yl)propyl)amino)methyl)isoindolin-2-yl)-4-(trifluoromethyl)pyridazin-3(2H)-one] | < 100
17 | O=C(CCNC[C@H]1c2ccccc2CN1c1cn[nH]c(=O)c1C(F)(F)F)N1CCN(c2ncc(C(F)(F)F)cn2)CC1 [Example 434, (R)-5-(1-(((3-Oxo-3-(4-(5-(trifluoromethyl)pyrimidin-2-yl)piperazin-1-yl)propyl)amino)methyl)isoindolin-2-yl)-4-(trifluoromethyl)pyridazin-3(2H)-one] | ≥ 1000
18 | O=C(c1cccc(OCC2CCCN2c2cn[nH]c(=O)c2C(F)(F)F)c1)N1CCn2c(nnc2C(F)(F)F)C1 (stereo not shown) [Example 436, 4-(Trifluoromethyl)-5-(2-((3-(3-(trifluoromethyl)-5,6,7,8-tetrahydro-[1,2,4]triazolo[4,3-a]pyrazine-7-carbonyl)phenoxy)methyl)pyrrolidin-1-yl)pyridazin-3(2H)-one] | 100 to 1000
19 | N#Cc1cnc(N2CCN(C(=O)c3cncc(OC[C@@H]4CCCN4c4cn[nH]c(=O)c4C(F)(F)F)c3)CC2)cn1 [Example 444, (S)-5-(4-(5-((1-(6-Oxo-5-(trifluoromethyl)-1,6-dihydropyridazin-4-yl)pyrrolidin-2-yl)methoxy)nicotinoyl)piperazin-1-yl)pyrazine-2-carbonitrile] | < 100

Now from value to compound:

Row | IC50 [nM] | SMILES
20 | < 100 | N#Cc1ccc(N2CCN(C(=O)c3cccc(OCC4CCCN4c4cn[nH]c(=O)c4C(F)(F)F)c3)CC2)nc1 (stereo not shown) [Example 435, 6-(4-(3-((1-(6-Oxo-5-(trifluoromethyl)-1,6-dihydropyridazin-4-yl)pyrrolidin-2-yl)methoxy)benzoyl)piperazin-1-yl)nicotinonitrile]
21 | < 100 | N#Cc1cnc(N2CCN(C(=O)c3cccc(OCC4CCCN4c4cn[nH]c(=O)c4C(F)(F)F)c3)CC2)nc1 (stereo not shown) [Example 437, 2-(4-(3-((1-(6-Oxo-5-(trifluoromethyl)-1,6-dihydropyridazin-4-yl)pyrrolidin-2-yl)methoxy)benzoyl)piperazin-1-yl)pyrimidine-5-carbonitrile]
22 | ≥ 1000 | N#Cc1cnc(N2CCN(C(=O)c3cccc(OC[C@H]4CCCN4c4cn[nH]c(=O)c4C(F)(F)F)c3)CC2)nc1 [Example 438, (R)-2-(4-(3-((1-(6-Oxo-5-(trifluoromethyl)-1,6-dihydropyridazin-4-yl)pyrrolidin-2-yl)methoxy)benzoyl)piperazin-1-yl)pyrimidine-5-carbonitrile]
23 | < 100 | N#Cc1cnc(N2CCN(C(=O)c3cccc(OC[C@@H]4CCCN4c4cn[nH]c(=O)c4C(F)(F)F)c3)CC2)nc1 [Example 439, (S)-2-(4-(3-((1-(6-Oxo-5-(trifluoromethyl)-1,6-dihydropyridazin-4-yl)pyrrolidin-2-yl)methoxy)benzoyl)piperazin-1-yl)pyrimidine-5-carbonitrile]
24 | < 100 | O=C(c1cccc(OC[C@@H]2CCCN2c2cn[nH]c(=O)c2C(F)(F)F)c1)N1CCN(c2ccc(C(F)(F)F)cn2)CC1 [Example 440, (S)-4-(Trifluoromethyl)-5-(2-((3-(4-(5-(trifluoromethyl)pyridin-2-yl)piperazine-1-carbonyl)phenoxy)methyl)pyrrolidin-1-yl)pyridazin-3(2H)-one]
25 | < 100 | O=C(c1cccc(OC[C@@H]2CCCN2c2cn[nH]c(=O)c2C(F)(F)F)c1)N1CCN(c2ncc(C(F)(F)F)cn2)CC1 [Example 441, (S)-4-(Trifluoromethyl)-5-(2-((3-(4-(5-(trifluoromethyl)pyrimidin-2-yl)piperazine-1-carbonyl)phenoxy)methyl)pyrrolidin-1-yl)pyridazin-3(2H)-one]
26 | < 100 | N#Cc1ccc(N2CCN(C(=O)c3cncc(OCC4CCCN4c4cn[nH]c(=O)c4C(F)(F)F)c3)CC2)nc1 (stereo not shown) [Example 442, 6-(4-(5-((1-(6-Oxo-5-(trifluoromethyl)-1,6-dihydropyridazin-4-yl)pyrrolidin-2-yl)methoxy)nicotinoyl)piperazin-1-yl)nicotinonitrile]
27 | < 100 | N#Cc1cnc(N2CCN(C(=O)c3cccc(OC[C@@H]4CCCN4c4cn[nH]c(=O)c4C(F)(F)F)c3)CC2)cn1 [Example 443, (S)-5-(4-(3-((1-(6-Oxo-5-(trifluoromethyl)-1,6-dihydropyridazin-4-yl)pyrrolidin-2-yl)methoxy)benzoyl)piperazin-1-yl)pyrazine-2-carbonitrile]
28 | < 100 | O=C(c1cccc(OC[C@@H]2CCCN2c2cn[nH]c(=O)c2C(F)(F)F)c1)N1CCN(c2ncccn2)CC1 [Example 445, (S)-5-(2-((3-(4-(Pyrimidin-2-yl)piperazine-1-carbonyl)phenoxy)methyl)pyrrolidin-1-yl)-4-(trifluoromethyl)pyridazin-3(2H)-one]

Reference: US10550105B2 (Ribon Therapeutics Inc., priority 2018, dated 2020)
